The target of experiment [1] is T1, Rat Kidney Medullary V2 Receptors (vasopressin V2) (Rattus norvegicus, UniProt Q00788).
T1 construct: Medullary tissues from rat kidneys are dissected out; from tissue; host or cells: rat kidney medulla membranes
Kind of experiment: Binding Assay to Rat Kidney Medullary V2 Receptors. The following applies: rat kidney medullary V2, [3H]Arg8-vasopressin. The method, then: Binding Assay to Rat Kidney Medullary V2 Receptors
Medullary tissues from rat kidneys are dissected out, cut into small pieces and let soak in a […] sodium chloride solution containing 1.0 mM EDTA with many changes of the liquid phase, until the solution is clear of blood. The tissue is homogenized in a 0.25M sucrose solution containing 1.0 mM EDTA and 0.1 mM PMSF using a Potter-Elvehjem homogenizer with a teflon pestle. The homogenate is filtered through several layers (4 layers) of cheese cloth. The filtrate is rehomogenized using a dounce homogenizer, with a tight fitting pestle. The final homogenate is contrifuged at 1500×g for 15 min. The nuclear pellet is discarded and the supernatant fluid recentrifuged at 40,000×g for 30 min. The resulting pellet formed contains a dark inner part with the exterior, slightly pink. The pink outer part is suspended in a small amount of 50.0 mMTris.HCl buffer, pH 7.4. The protein content is determined by the Lowry's method (Lowry et al, J. Biol. Chem., 1953). The membrane suspension is stored at -70° C., in 50.0 mMTris.HCl, containing 0.2% inactivated BSA and 0.1 mM PMSF in aliquots of 1.0 ml containing 10.0 mg protein per ml of suspension until use in subsequent binding experiments.
For binding experiments, the following is added in μl volume to wells of a 96 well format of a microtiter plate: 100.0 μl of 100.0 mM Tris.HCl buffer containing 0.2% heat inactivated BSA, 10.0 mM MgCl2 and a mixture of protease inhibitors: leupeptin, 1.0 mg %; aprotinin, 1.0 mg %; 1,10-phenanthroline, 2.0 mg %; trypsin inhibitor, 10.0 mg % and 0.1 mM PMSF, 20.0 μl of [^3 H]Arginine^8, vasopressin (S.A. 75.0 Ci/mmole) at 0.8 nM and the reaction initiated by the addition of 80.0 μl of tissue membranes (200.0 μg tissue protein). The plates are left undisturbed on the bench top for 120 min. to reach equilibrium. Non-specific binding is assessed in the presence of 1.0 μM of unlabeled ligand, added in 20 μl volume. For test compounds, these are solubilized in 50% dimethylsulfoxide (DMSO) and added in 20.0 μl volume to a final incubation volume of 200 μl. Upon completion of binding, the content of each well is filtered off, using a Brandel® cell Harvester (Gaithersburg, Md.). The radioactivity trapped on the filter disk by the ligand-receptor complex is assessed by liquid scintillation counting in a Packard LS Counter, with an efficiency of 65% for tritium. The data are analyzed for IC50 values by the LUNDON-2 program for competition (LUNDON SOFTWARE, OH).

Experiment [2] deals with T2, Rat Hepatic V1 Receptors (vasopressin V1) (Rattus norvegicus, UniProt P30560).
T2 construct: Rat liver plasma membranes expressing the vasopressin V1 receptor subtypes are isolated by sucrose density gradient; from tissue; host or cells: rat liver plasma membranes
T2 sequence (P30560 whole entry): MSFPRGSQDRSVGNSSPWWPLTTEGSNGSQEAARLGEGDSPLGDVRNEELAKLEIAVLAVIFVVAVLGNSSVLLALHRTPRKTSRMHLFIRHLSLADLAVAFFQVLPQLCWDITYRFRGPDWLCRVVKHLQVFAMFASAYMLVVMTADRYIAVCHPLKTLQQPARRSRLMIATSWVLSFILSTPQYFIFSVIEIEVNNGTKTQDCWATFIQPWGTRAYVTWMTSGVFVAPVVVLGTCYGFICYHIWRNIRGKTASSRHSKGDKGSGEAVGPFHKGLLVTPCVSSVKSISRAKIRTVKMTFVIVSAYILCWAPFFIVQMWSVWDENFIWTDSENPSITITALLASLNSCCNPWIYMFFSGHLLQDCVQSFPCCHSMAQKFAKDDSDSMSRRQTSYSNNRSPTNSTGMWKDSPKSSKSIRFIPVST
Nature of the experiment: Binding Assay to Rat Hepatic V1 Receptors. As to conditions: rat hepatic V1, [3H]vasopressin. The method, then:
Binding Assay to Rat Hepatic V1 Receptors
Rat liver plasma membranes expressing the vasopressin V1 receptor subtypes are isolated by sucrose density gradient according to the method described by Lesko et al., (1973). These membranes are quickly suspended in 50.0 mMTris.HCl buffer, pH 7.4, containing 0.2% bovine serum albumin (BSA) and 0.1 mM phenylmethylsulfonylfluoride (PMSF) and kept frozen at -70° C. until used in subsequent binding experiments. For binding experiments, the following is added to the wells of a ninety-six well format microtiter plate: 100 μl of 100.0 mM Tris.HCl buffer containing 10.0 mM MgCl2, 0.2% heat inactivated BSA and a mixture of protease inhibitors: leupeptin, 1.0 mg %; aprotinin, 1.0 mg %, 1,10-phenanthroline,2.0 mg %; trypsin inhibitor, 10.0 mg % and 0.1 mM PMSF, 20.0 μl of [phenylalanyl-3,4,5-^3 H]vasopressin (S.A. 45.1 Ci/mmole) at 0.8 nM, and the reaction initiated by the addition of 80 μl of tissue membranes containing 20 μg of tissue protein. The plates are kept undisturbed on the bench top at room temperature for 120 min. to reach equilibrium. Nonspecific samples are assayed in the presence of 0.1 μM of the unlabeled antagonist phenylalanylvasopressin, added in 20.0 μl volume to a final incubation volume of 200 μl. Upon completion of binding, the content of each well is filtered off, using a Brandel® cell Harvester (Gaithersburg, Md.). The radioactivity trapped on the filter disk by the ligand-receptor complex is assessed by liquid scintillation counting in a Packard LS Counter, with an efficiency of 65% for tritium. The data are analyzed for IC50 values by the LUNDON-2 program for competition (LUNDON SOFTWARE, OH).

The subject of another experiment is Vasopressin V2. Kind of experiment: Vasopressin V2 Antagonist Activity in Conscious Hydrated Rats. The experiment is classed as in vivo, rat. The following applies: AVP 0.4 μg/kg i.p. The method, then:
Vasopressin V2 Antagonist Activity in conscious Hydrated Rats Conscious hydrated rats are treated with compounds under study from 0.1 to 100 mg/kg orally or vehicle. Two to four rats are used for each compound. One hour later, arginine vasopressin (AVP, antidiuretic hormone, ADH) dissolved in peanut oil is administered at 0.4 μg/kg intraperitoneally. Two rats in each test would not receive arginine vasopressin but only the vehicle (peanut oil) to serve as water-loading control. Twenty minutes later each rat is given 30 mL/kg of deionized water orally by gavage and is placed individually in a metabolic cage equipped with a funnel and a graduated glass cylinder to collect urine for four hours. Urine volume is measured and osmolality analyzed by use of a Fiske One-Ten osmometer (Fiske Assoc., Norwood, Mass. USA). Urinary sodium, potassium, and chloride are analyzed by use of ion-specific electrodes in a Beckman E3 (Electrolyte 3) Analyzer. In the following results, […] and […] osmolality relative to AVP-control indicates activity.

Another experiment concerns the target T3, oxytocin receptors (Rattus norvegicus, UniProt P70536).
T3 construct: The uteri are dissected out, cleaned of fat and connective tissues; from tissue; host or cells: uterus membranes of DES-treated female Sprague-Dawley rats
T3 sequence (P70536 1-388): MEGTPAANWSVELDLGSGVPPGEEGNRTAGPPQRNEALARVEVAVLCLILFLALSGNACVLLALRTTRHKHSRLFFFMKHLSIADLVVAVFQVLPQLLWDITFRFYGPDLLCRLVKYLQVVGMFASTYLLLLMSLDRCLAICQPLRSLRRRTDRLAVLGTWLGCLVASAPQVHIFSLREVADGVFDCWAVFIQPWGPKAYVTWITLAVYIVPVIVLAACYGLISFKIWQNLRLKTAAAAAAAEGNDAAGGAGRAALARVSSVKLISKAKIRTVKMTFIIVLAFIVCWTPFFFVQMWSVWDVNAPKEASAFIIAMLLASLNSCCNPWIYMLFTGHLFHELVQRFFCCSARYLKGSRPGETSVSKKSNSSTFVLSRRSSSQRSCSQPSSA
Kind of experiment: Oxytocin Receptor Binding. Also on record: species or system Sprague-Dawley rats. The method, then: Oxytocin Receptor Binding
Female Sprague-Dawley rats weighing approximately 200-250 g are injected intramuscularly (i.m.) with 0.3 mg/kg of body weight of diethylstilbestrol (DES). The rats are sacrificed 18 hours later under pentobarbital anesthesia. The uteri are dissected out, cleaned of fat and connective tissues and rinsed in 50 ml of normal saline. The tissue pooled from six rats is homogenized in 50 ml of 0.01 mMTris.HCl, containing 0.5 mM dithiothreitol and 1.0 mM EDTA, adjusted to pH 7.4, using a polytron at setting 6 with three passes of 10 sec each. The homogenate is passed through two (2) layers of cheesecloth and the filtrate centrifuged at 1000×g for 10 min. The clear supernatant is removed and recentrifuged at 165,000×g for 30 min. The resulting pellet containing the oxytocin receptors is resuspended in 50.0 mM Tris.HCl containing 5.0 mM MgCl2 at pH 7.4, to give a protein concentration of 2.5 mg/ml of tissue suspension. This preparation is used in subsequent binding assays with [^3 H]Oxytocin.
Binding of 3,5-[^3 H]Oxytocin ([^3 H]OT) to its receptors is done in microtiter plates using [^3 H]OT, at various concentrations, in an assay buffer of 50.0 mM Tris.HCl, pH 7.4 and containing 5.0 mM MgCl2, and a mixture of protease inhibitors: BSA, 0.1 mg; aprotinin, 1.0 mg; 1,10-phenanthroline, 2.0 mg; […], 10.0 mg; and PMSF, 0.3 mg per 100 ml of buffer solution. Nonspecific binding is determined in the presence of 1.0 uM unlabeled OT. The binding reaction is terminated after 60 min., at 22° C., by rapid filtration through glass fiber filters using a Brandel® cell harvester (Biomedical Research and Development Laboratories, Inc., Gaithersburg, Md.). Competition experiments are conducted at equilibrium using 1.0 nM [^3 H]OT and varying the concentration of the displacing agents. The concentrations of agent displacing 50% of [^3 H]OT at its sites (IC50) are calculated by a computer assisted LUNDON-2 program (LUNDON SOFTWARE INC., Ohio, USA).

T1 sequence (Q00788 whole entry): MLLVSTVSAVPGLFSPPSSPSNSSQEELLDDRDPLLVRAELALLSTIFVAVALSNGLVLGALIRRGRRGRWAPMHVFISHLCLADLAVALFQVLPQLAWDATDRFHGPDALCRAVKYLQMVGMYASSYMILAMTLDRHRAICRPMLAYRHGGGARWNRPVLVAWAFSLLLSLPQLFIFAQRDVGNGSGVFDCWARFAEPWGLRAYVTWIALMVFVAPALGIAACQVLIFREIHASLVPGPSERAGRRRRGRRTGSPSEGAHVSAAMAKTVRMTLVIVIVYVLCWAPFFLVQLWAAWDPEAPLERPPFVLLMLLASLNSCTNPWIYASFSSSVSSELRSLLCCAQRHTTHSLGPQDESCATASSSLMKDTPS

Usually IC50 stands for the concentration that inhibits the measured activity by half. Low values mean greater potency in that assay, high ones weaker potency in that assay. Consider `O=C(Nc1ccc(C(=O)N2CCCCc3sccc32)cc1)c1ccc(Cl)c(Cl)c1` [Example 1, N-[4-[(5,6,7,8-Tetrahydro-4H-thieno[3,2-b]azepin-4-yl)carbonyl]phenyl]-3,4-dichlorobenzamide], for which the IC50 in experiment [1] amounted to 0.44 µM; in experiment [2], 1.65 µM.
In experiment [1], `Cc1ccccc1C(=O)Nc1ccc(C(=O)N2CCCCc3sccc32)cc1` [Example 3, N-[4-[(5,6,7,8-Tetrahydro-4H-thieno[3,2-b]azepin-4-yl)carbonyl]phenyl]-2-methylbenzamide] came in with an IC50 of 0.023 µM. Also, in the experiment with Vasopressin V2 (100 mg/kg P.O.), the Osmolality turned out to be 1081 mOsm/kg and the “Urine Volume” value was found to be 10 ml/4 hours. In experiment [2], the IC50 was determined as 0.077 µM.
As to `O=C(Nc1ccc(C(=O)N2CCCCc3sccc32)cc1)c1ccco1` [Example 4, N-[4-[(5,6,7,8-Tetrahydro-4H-thieno[3,2-b]azepin-4-yl)carbonyl]phenyl]2-furanecarboxamide], the figures for the IC50 in experiment [1] and in experiment [2] were 1.8 µM and 0.4 µM, respectively.
In experiment [1], `CC(C)(C)c1ccc(C(=O)Nc2ccc(C(=O)N3CCCCc4sccc43)cc2)cc1` [Example 5, N-[4-[(5,6,7,8-Tetrahydro-4H-thieno[3,2-b]azepin-4-yl)carbonyl]phenyl]4-tert-butylbenzamide] gave an IC50 of 21.4 µM.
In the case of `CCCCc1ccc(C(=O)Nc2ccc(C(=O)N3CCCCc4sccc43)cc2)cc1` [Example 6, N-[4-[(5,6,7,8-Tetrahydro-4H-thieno[3,2-b]azepin-4-yl)carbonyl]phenyl]4-(n-butyl)benzamide], the IC50 in experiment [1] was 3.4 µM; in experiment [2] it was 50 µM.
Consider `Cc1ccsc1C(=O)Nc1ccc(C(=O)N2CCCCc3sccc32)cc1` [Example 7, N-[4-[(5,6,7,8-Tetrahydro-4H-thieno[3,2-b]azepin-4-yl)carbonyl]phenyl]3-methyl-2-thiophenecarboxamide], for which the IC50 in experiment [1] came to 0.138 µM; in experiment [2], 0.059 µM. For the same compound, the “Urine Volume” value with Vasopressin V2 (100 mg/kg P.O.) was determined as 6.2 ml/4 hours.
As to `Cc1ccc(C)c(C(=O)Nc2ccc(C(=O)N3CCCCc4sccc43)cc2)c1` [Example 8, N-[4-[(5,6,7,8-Tetrahydro-4H-thieno[3,2-b]azepin-4-yl)carbonyl]phenyl]2,5-dimethylbenzamide], the IC50 in experiment [1] turned out to be 0.12 µM; in experiment [2] it was 0.2 µM.
Consider `Cc1cccc(C(=O)Nc2ccc(C(=O)N3CCCCc4sccc43)cc2)c1C` [Example 10, N-[4-[(5,6,7,8-Tetrahydro-4H-thieno[3,2-b]azepin-4-yl)carbonyl]phenyl]2,3-dimethylbenzamide], for which the IC50 in experiment [1] came out at 0.052 µM; in experiment [2], 0.23 µM.
Consider `Cc1ccc(C(=O)Nc2ccc(C(=O)N3CCCCc4sccc43)cc2)c(C)c1` [Example 11, N-[4-[(5,6,7,8-Tetrahydro-4H-thieno[3,2-b]azepin-4-yl)carbonyl]phenyl]2,4-dimethylbenzamide], for which the figures for the IC50 in experiment [1] and in experiment [2] were 0.06 µM and 0.28 µM, respectively. This compound yielded an Osmolality in the experiment on Vasopressin V2 (30 mg/kg P.O.) of 1420 mOsm/kg. Moreover, the “Urine Volume” value in the experiment on Vasopressin V2 (30 mg/kg P.O.) turned out to be 5 ml/4 hours.
For the compound `O=C(Cc1ccccc1)Nc1ccc(C(=O)N2CCCCc3sccc32)cc1` [Example 12, N-[4-[(5,6,7,8-tetrahydro-4H-thieno[3,2-b]azepin-4-yl)carbonyl]phenyl]benzeneacetamide], the IC50 in experiment [1] is 0.036 µM; in experiment [2], 0.26 µM.
For `O=C(Nc1ccc(C(=O)N2CCCCc3sccc32)cc1)c1coc2c1C(=O)CCC2` [Example 179] the same measures were 5.5 µM and 1.3 µM.
For `O=C(Nc1ccc(C(=O)N2CCCCc3sccc32)cc1)c1ccc2[nH]ccc2c1` [Example 180] the same measures were 0.37 µM and 8 µM.
By inhibition is commonly meant the change of the read-out against control, counted positive when it falls. A higher inhibition goes with a response far below the control. On to `CCCCOc1ccc(C(=O)N2CCCCc3sccc32)cc1` [Example 233, 4-[4-(n-Butyloxy)benzoyl]-5,6,7,8-tetrahydro-4H-thieno[3,2-b]azepine], for which the IC50 at oxytocin receptors (1.0 nM [3H]oxytocin) was 0.95 µM. Also, the inhibition at 10 µM at oxytocin receptors (10 μM) is 93%.
